Earlier results, collected in patent US6350444B1, “Gene therapy for pulmonary edema using adenovirus vectors encoding Na,K-ATPase” (Edema Clearance, Inc., priority 1998, dated 2002).

Key:
[1] = test system: isolated rat lungs
[2] = target: rat α1 subunit (Rattus norvegicus, UniProt P06685); details: read-out: IC50 of ouabain

SMILES	lung liquid clearance [1]	IC50 [2] [µM]
N=C(N)NC(=O)c1nc(Cl)c(N)nc1N [amiloride]	decreased	–
C[C@@H]1O[C@@H](O[C@H]2C[C@@H](O)[C@]3(CO)[C@H]4[C@H](O)C[C@]5(C)[C@@H](C6=CC(=O)OC6)CC[C@]5(O)[C@@H]4CC[C@]3(O)C2)[C@H](O)[C@H](O)[C@H]1O [ouabain]	decreased	1000
